Assay: Dynamic vapour sorption (DVS) of selected salts (Example 8)
Type: physicochemical
Protocol: DVS: The moisture sorption properties of the feed API were analyzed by DVS Intrinsic instrument (Surface Measurement System). Approximately 20-50 mg of API was weighed on an aluminum pan and loaded into the instrument equilibrated at 25° C. The sample was allowed to equilibrate under dry atmosphere (0% relative humidity) for 60 minutes before increasing the humidity from 0% to 30% at 5% step increment and from 30% to 90% at 10% step increment. A desorption cycle was also applied from 90% to 30% (10% step) and from 30% to 0% (5% decrement). A rate of change in mass per time unit (dm/dt) of 0.002%/min was set as the equilibrium parameter. Kinetic and isotherm graphs were calculated.

COc1ccc2c3c([nH]c2c1)CCN(C)CC3.O=C(O)c1ccccc1 [Tabernanthalog• Benzoate]
DVS 0 to 90 to 0% RH (dm/dt <0.002%), mass change (desorption, 0.0% RH): −0.037%
DVS 0 to 90 to 0% RH (dm/dt <0.002%), mass change (desorption, 5.0% RH): −0.034%
DVS 0 to 90 to 0% RH (dm/dt <0.002%), mass change (desorption, 10.0% RH): −0.032%
DVS 0 to 90 to 0% RH (dm/dt <0.002%), mass change (desorption, 15.0% RH): −0.032%
DVS 0 to 90 to 0% RH (dm/dt <0.002%), mass change (desorption, 20.0% RH): −0.029%
DVS 0 to 90 to 0% RH (dm/dt <0.002%), mass change (desorption, 25.0% RH): −0.028%
DVS 0 to 90 to 0% RH (dm/dt <0.002%), mass change (desorption, 30.0% RH): −0.023%
DVS 0 to 90 to 0% RH (dm/dt <0.002%), mass change (desorption, 40.0% RH): −0.018%
DVS 0 to 90 to 0% RH (dm/dt <0.002%), mass change (desorption, 50.0% RH): −0.014%
DVS 0 to 90 to 0% RH (dm/dt <0.002%), mass change (desorption, 60.0% RH): −0.001%
DVS 0 to 90 to 0% RH (dm/dt <0.002%), mass change (desorption, 70.0% RH): 0.034%
DVS 0 to 90 to 0% RH (dm/dt <0.002%), mass change (desorption, 80.0% RH): 0.063%
DVS 0 to 90 to 0% RH (dm/dt <0.002%), mass change (desorption, 90.0% RH): 0.118%
DVS 0 to 90 to 0% RH (dm/dt <0.002%), mass change (sorption, 0.0% RH): 0.00%
DVS 0 to 90 to 0% RH (dm/dt <0.002%), mass change (sorption, 5.0% RH): −0.001%
DVS 0 to 90 to 0% RH (dm/dt <0.002%), mass change (sorption, 10.0% RH): 0.002%
DVS 0 to 90 to 0% RH (dm/dt <0.002%), mass change (sorption, 15.0% RH): −0.002%
DVS 0 to 90 to 0% RH (dm/dt <0.002%), mass change (sorption, 20.0% RH): −0.003%
DVS 0 to 90 to 0% RH (dm/dt <0.002%), mass change (sorption, 25.0% RH): −0.002%
DVS 0 to 90 to 0% RH (dm/dt <0.002%), mass change (sorption, 30.0% RH): 0.002%
DVS 0 to 90 to 0% RH (dm/dt <0.002%), mass change (sorption, 40.0% RH): 0.002%
DVS 0 to 90 to 0% RH (dm/dt <0.002%), mass change (sorption, 50.0% RH): 0.006%
DVS 0 to 90 to 0% RH (dm/dt <0.002%), mass change (sorption, 60.0% RH): 0.009%
DVS 0 to 90 to 0% RH (dm/dt <0.002%), mass change (sorption, 70.0% RH): 0.009%
DVS 0 to 90 to 0% RH (dm/dt <0.002%), mass change (sorption, 80.0% RH): 0.046%
DVS 0 to 90 to 0% RH (dm/dt <0.002%), mass change (sorption, 90.0% RH): 0.118%
